Laboratory results reported in PubChem BioAssay (NCI).
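Grown in 96-well plates, cells were treated for 48 hours with each compound at five concentrations. Insufficient inhibition: endpoint recorded as highest concentration tested. GI50 = concentration required for 50% inhibition of growth. Definition used: TGI = concentration required for complete inhibition of growth.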

What was measured:
Assay in all cases: NCI anticancer screen, dose series, 48 h
[1] = system: UO-31 renal
[2] = system: MDA-MB-231 breast
[3] = system: T-47D breast
[4] = system: SR leukemia
[5] = system: SNB-19 CNS
[6] = system: EKVX NSCLC
[7] = system: PC-3 prostate
[8] = system: SNB-75 CNS
[9] = system: NCI/ADR-RES ovarian
[10] = system: MCF7 breast
[11] = system: DU-145 prostate
[12] = system: UACC-62 melanoma
[13] = system: 786-0 renal
[14] = system: HOP-62 NSCLC
[15] = system: A549 NSCLC
[16] = system: K-562 leukemia
[17] = system: IGROV1 ovarian
[18] = system: HT29 colon
[19] = system: MALME-3M melanoma
[20] = system: RXF 393 renal
[21] = system: SW-620 colon
[22] = system: SK-MEL-5 melanoma
[23] = system: SK-MEL-2 melanoma
[24] = system: OVCAR-8 ovarian
[25] = system: SN12C renal
[26] = system: MDA-MB-435
[27] = system: COLO 205 colon
[28] = system: NCI-H226 lung
[29] = system: LOX IMVI melanoma
[30] = system: HOP-92 NSCLC
[31] = system: A498 renal
[32] = system: OVCAR-4 ovarian
[33] = system: TK-10 renal
[34] = system: SK-OV-3 ovarian
[35] = system: SF-268 CNS
[36] = system: ACHN renal
[37] = system: MOLT-4 leukemia
[38] = system: KM12 colon
[39] = system: NCI-H522 lung
[40] = system: HS 578T breast
[41] = system: M14 melanoma
[42] = system: UACC-257 melanoma
[43] = system: NCI-H23 lung
[44] = system: HL-60(TB) leukemia
[45] = system: SF-295 CNS
[46] = system: NCI-H460 lung
[47] = system: CAKI-1 renal
[48] = system: CCRF-CEM leukemia
[49] = system: HCT-15 colon
[50] = system: SF-539 CNS
[51] = system: U251 CNS
[52] = system: RPMI-8226 leukemia
[53] = system: HCT-116 colon
[54] = system: SK-MEL-28 melanoma
[55] = system: HCC-2998 colon
[56] = system: OVCAR-5 ovarian
[57] = system: BT-549 breast
[58] = system: OVCAR-3 ovarian

In the case of `CN1CCN(c2ccc3nc(-c4[nH]ncc4Nc4ncnc5c4OCCCN5)[nH]c3c2)CC1`, the GI50 [1] is reported as 0.0179 µM, the TGI [1] is reported as 0.0578 µM and the GI50 [2] is reported as < 0.01 µM. It also gave a TGI [2] of 0.0423 µM, a GI50 [3] of 0.0129 µM and a TGI [3] of 0.155 µM. The GI50 [4] was < 0.01 µM, the GI50 [5] was 0.0106 µM and the TGI [5] was 0.172 µM. The GI50 [6] was 0.0168 µM, the TGI [6] was 0.183 µM and the GI50 [7] was < 0.01 µM. The TGI [7] was 0.0671 µM, the GI50 [8] was < 0.01 µM and the TGI [8] was 0.0177 µM. The GI50 [9] was 0.28 µM, the TGI [9] was 2.89 µM and the GI50 [10] was < 0.01 µM. The TGI [10] was 0.145 µM, the GI50 [11] was < 0.0118 µM and the TGI [11] was 0.482 µM. For the same compound, the GI50 [12] was 0.0103 µM, the TGI [12] was 0.0529 µM and the GI50 [13] was < 0.0119 µM. For the same compound, the TGI [13] was 0.0944 µM, the GI50 [14] was 0.0101 µM and the TGI [14] was 0.062 µM. For the same compound, the GI50 [15] was < 0.01 µM, the TGI [15] was 0.116 µM and the GI50 [16] was < 0.01 µM. For the same compound, the TGI [16] was 29.8 µM, the GI50 [17] was < 0.01 µM and the TGI [17] was 0.0707 µM. The GI50 [18] was < 0.0126 µM, the TGI [18] was 0.1 µM and the GI50 [19] was 0.0185 µM. For the same compound, the TGI [19] was 0.0633 µM, the GI50 [20] was < 0.01 µM and the GI50 [21] was < 0.01 µM. It also gave a TGI [21] of 0.112 µM, a GI50 [22] of 0.0204 µM and a TGI [22] of 0.0976 µM. It also gave a GI50 [23] of 0.0124 µM, a TGI [23] of 0.0468 µM and a GI50 [24] of 0.0176 µM. For the same compound, the TGI [24] was 0.593 µM, the GI50 [25] was < 0.01 µM and the TGI [25] was 0.12 µM. The GI50 [26] was < 0.01 µM, the TGI [26] was 0.081 µM and the GI50 [27] was < 0.01 µM. The TGI [27] was 0.0157 µM, the GI50 [28] was < 0.01 µM and the TGI [28] was 0.0573 µM. For the same compound, the GI50 [29] was < 0.01 µM, the TGI [29] was 0.0202 µM and the GI50 [30] was < 0.0107 µM. The TGI [30] was 0.0429 µM, the GI50 [31] was < 0.013 µM and the TGI [31] was 0.0341 µM. It also gave a GI50 [32] of 0.0162 µM, a TGI [32] of 0.104 µM and a GI50 [33] of 0.0166 µM. For the same compound, the TGI [33] was 0.0576 µM, the GI50 [34] was < 0.0108 µM and the TGI [34] was 0.202 µM. The GI50 [35] was < 0.0112 µM, the TGI [35] was 0.049 µM and the GI50 [36] was 0.0139 µM. For the same compound, the TGI [36] was 0.105 µM, the GI50 [37] was < 0.01 µM and the TGI [37] was 0.315 µM. The GI50 [38] was < 0.0105 µM, the TGI [38] was 0.109 µM and the GI50 [39] was < 0.0117 µM. For the same compound, the TGI [39] was 0.0488 µM, the GI50 [40] was < 0.01 µM and the TGI [40] was 0.0302 µM. For the same compound, the GI50 [41] was < 0.0115 µM, the TGI [41] was 0.0706 µM and the GI50 [42] was 0.0252 µM. The TGI [42] was 0.213 µM, the GI50 [43] was < 0.0109 µM and the TGI [43] was 0.0726 µM. The GI50 [44] was < 0.01 µM, the TGI [44] was 0.0298 µM and the GI50 [45] was 0.0162 µM. The TGI [45] was 0.0769 µM, the GI50 [46] was 0.0208 µM and the TGI [46] was 0.0804 µM. For the same compound, the GI50 [47] was < 0.01 µM, the TGI [47] was 0.0805 µM and the GI50 [48] was < 0.01 µM. It also gave a TGI [48] of 1.36 µM, a GI50 [49] of 0.0259 µM and a TGI [49] of 0.63 µM. The GI50 [50] was < 0.01 µM, the TGI [50] was 0.0214 µM and the GI50 [51] was < 0.01 µM. The TGI [51] was 0.123 µM, the GI50 [52] was 0.0418 µM and the TGI [52] was 0.155 µM. The GI50 [53] was < 0.01 µM, the TGI [53] was 1.09 µM and the GI50 [54] was 0.0161 µM. It also gave a TGI [54] of 0.104 µM, a GI50 [55] of 0.0159 µM and a TGI [55] of 0.0762 µM. The GI50 [56] was 0.0121 µM, the TGI [56] was 0.163 µM and the GI50 [57] was 0.0108 µM. For the same compound, the TGI [57] was 0.0384 µM, the GI50 [58] was < 0.01 µM and the TGI [58] was 0.0422 µM.
In the case of `CNC(=O)c1cc(Oc2ccc3nc(N[C@@H]4CCCC[C@H]4O)sc3c2)ccn1`, the GI50 [1] is reported as 33.5 µM, the TGI [1] is reported as > 100 µM and the GI50 [2] is reported as 82.2 µM. The TGI [2] was > 100 µM, the GI50 [3] was 21.1 µM and the TGI [3] was > 100 µM. For the same compound, the GI50 [4] was 40 µM, the TGI [4] was > 100 µM and the GI50 [5] was > 100 µM. The TGI [5] was > 100 µM, the GI50 [6] was 38.2 µM and the TGI [6] was > 100 µM. The GI50 [7] was 33.7 µM, the TGI [7] was > 100 µM and the GI50 [8] was 31.3 µM. For the same compound, the TGI [8] was > 100 µM, the GI50 [9] was 49.2 µM and the TGI [9] was > 100 µM. The GI50 [10] was 36.6 µM, the TGI [10] was > 100 µM and the GI50 [11] was 71.8 µM. The TGI [11] was > 100 µM, the GI50 [12] was 49.9 µM and the TGI [12] was > 100 µM. The GI50 [13] was > 90.9 µM, the TGI [13] was > 100 µM and the GI50 [14] was > 67.3 µM. The TGI [14] was > 100 µM, the GI50 [15] was 62.5 µM and the TGI [15] was > 100 µM. For the same compound, the GI50 [16] was 43.7 µM, the TGI [16] was > 100 µM and the GI50 [17] was > 77.2 µM. For the same compound, the TGI [17] was > 100 µM, the GI50 [18] was 97.8 µM and the TGI [18] was > 100 µM. The GI50 [19] was 28.6 µM, the TGI [19] was 99.2 µM and the GI50 [20] was > 100 µM. The TGI [20] was > 100 µM, the GI50 [21] was > 100 µM and the TGI [21] was > 100 µM. The GI50 [22] was 18.1 µM, the TGI [22] was 38.1 µM and the GI50 [23] was > 87.8 µM. For the same compound, the TGI [23] was > 100 µM, the GI50 [24] was 69.4 µM and the TGI [24] was > 100 µM. For the same compound, the GI50 [25] was > 100 µM, the TGI [25] was > 100 µM and the GI50 [26] was 32.6 µM. For the same compound, the TGI [26] was > 100 µM, the GI50 [27] was 59.8 µM and the TGI [27] was > 100 µM. For the same compound, the GI50 [28] was 61.9 µM, the TGI [28] was > 100 µM and the GI50 [29] was 58.4 µM. For the same compound, the TGI [29] was > 100 µM, the GI50 [30] was 31.9 µM and the TGI [30] was > 100 µM. The GI50 [31] was > 40.5 µM, the TGI [31] was > 100 µM and the GI50 [32] was 31.2 µM. The TGI [32] was > 100 µM, the GI50 [33] was > 100 µM and the TGI [33] was > 100 µM. The GI50 [34] was > 100 µM, the TGI [34] was > 100 µM and the GI50 [35] was 68 µM. For the same compound, the TGI [35] was > 100 µM, the GI50 [36] was 55.8 µM and the TGI [36] was > 100 µM. The GI50 [37] was 32.8 µM, the TGI [37] was > 100 µM and the GI50 [38] was 66.3 µM. The TGI [38] was > 100 µM, the GI50 [39] was > 76.7 µM and the TGI [39] was > 100 µM. For the same compound, the GI50 [40] was > 69.9 µM, the TGI [40] was > 100 µM and the GI50 [41] was 36.7 µM. For the same compound, the TGI [41] was > 100 µM, the GI50 [42] was 37.2 µM and the TGI [42] was > 100 µM. The GI50 [43] was 59.3 µM, the TGI [43] was > 100 µM and the GI50 [44] was 62.5 µM. The TGI [44] was > 100 µM, the GI50 [45] was 31.6 µM and the TGI [45] was > 100 µM. For the same compound, the GI50 [46] was 53.4 µM, the TGI [46] was > 100 µM and the GI50 [47] was 44.9 µM. For the same compound, the TGI [47] was > 100 µM, the GI50 [48] was 43.1 µM and the TGI [48] was > 100 µM. The GI50 [49] was 38.1 µM, the TGI [49] was > 100 µM and the GI50 [50] was 36.3 µM. The TGI [50] was > 100 µM, the GI50 [51] was 50.1 µM and the TGI [51] was > 100 µM. The GI50 [52] was > 54.1 µM, the TGI [52] was > 100 µM and the GI50 [53] was 49.1 µM. For the same compound, the TGI [53] was > 100 µM, the GI50 [54] was 63.3 µM and the TGI [54] was > 100 µM. The GI50 [55] was > 100 µM, the TGI [55] was > 100 µM and the GI50 [56] was > 100 µM. The TGI [56] was > 100 µM, the GI50 [57] was 31.8 µM and the TGI [57] was > 100 µM. The GI50 [58] was 45.2 µM and the TGI [58] was > 100 µM.
